The record followed here is paper PMC6934184, “Selective DNA-PKcs inhibition extends the therapeutic index of localized radiotherapy and chemotherapy” (The Journal of Clinical Investigation, 2019).

In the experiment the target is T1, CSNK1E (CK1 epsilon) (Homo sapiens, UniProt P49674).
T1 construct: purchased Thermo Fisher Scientific (Life Technologies) SelectScreen
In words: SelectScreen Z'LYTE. Format: biochemical. The method, boiled down: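 NU5455 was profiled across the SelectScreen Broad panel of kinase activity and binding assays. Z'LYTE reactions such as CSF1R ran at apparent Km ATP, while the Adapta CAMK1 assay used ATP listed as 10. Values are given as percent.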

T1 sequence (P49674 whole entry): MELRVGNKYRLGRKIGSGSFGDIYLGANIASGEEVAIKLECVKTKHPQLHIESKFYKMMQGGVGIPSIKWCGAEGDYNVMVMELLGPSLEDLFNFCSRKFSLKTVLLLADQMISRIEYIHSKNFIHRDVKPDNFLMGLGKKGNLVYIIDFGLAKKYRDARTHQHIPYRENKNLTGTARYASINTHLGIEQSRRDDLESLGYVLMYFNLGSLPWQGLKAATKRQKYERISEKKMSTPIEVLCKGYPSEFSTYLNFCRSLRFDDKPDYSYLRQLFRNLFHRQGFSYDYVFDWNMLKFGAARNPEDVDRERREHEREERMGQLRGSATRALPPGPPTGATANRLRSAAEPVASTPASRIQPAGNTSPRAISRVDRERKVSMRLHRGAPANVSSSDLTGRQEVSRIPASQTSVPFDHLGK

`CN(C(=O)CN1CCOCC1)c1ccc2sc3c(-c4cccc5c(=O)cc(N6CC7CCC(C6)O7)oc45)cccc3c2c1` [NU5455]: the inhibition (in general, the drop in the measured response relative to a control, in per cent) at 1 µM was -10.9%.
